{"source": "patent US10188756B2", "about": "“Imaging histone deacetylases with a radiotracer using positron emission tomography” (THE GENERAL HOSPITAL CORPORATION, priority 2013, dated 2019)", "key": {"HDAC6": {"target": "HDAC6 (Homo sapiens (Human), UniProt Q9UBN7)", "assay": "HDAC inhibition assay", "assay_type": "biochemical", "description": "(§1) All histone deacetylases were purchased from BPS Bioscience. […] All the other reagents were purchased from Sigma-Aldrich."}, "HDAC8": {"target": "HDAC8 (Homo sapiens (Human), UniProt Q9BY41)", "sequence (Q9BY41 whole entry)": "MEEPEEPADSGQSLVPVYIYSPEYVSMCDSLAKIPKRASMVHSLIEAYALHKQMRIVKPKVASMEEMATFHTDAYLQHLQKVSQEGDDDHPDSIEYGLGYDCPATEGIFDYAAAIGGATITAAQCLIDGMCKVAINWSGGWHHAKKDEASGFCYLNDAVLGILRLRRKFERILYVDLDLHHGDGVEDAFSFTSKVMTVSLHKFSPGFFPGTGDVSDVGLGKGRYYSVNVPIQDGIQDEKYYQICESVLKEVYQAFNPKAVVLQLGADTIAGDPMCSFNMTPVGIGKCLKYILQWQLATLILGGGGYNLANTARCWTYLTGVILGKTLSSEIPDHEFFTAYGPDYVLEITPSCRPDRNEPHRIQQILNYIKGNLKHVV", "assay": "HDAC inhibition assay", "assay_type": "biochemical", "description": "as §1"}, "Log D determination": {"assay": "Log D determination", "assay_type": "physicochemical", "conditions": "octanol / phosphate buffer pH 7.4", "procedure": "An aliquot (˜50 μL) of the formulated radiotracer was added to a test tube containing 2.5 mL of octanol and 2.5 mL of phosphate buffer solution (pH 7.4). The test tube was mixed by vortex for 2 minutes and then centrifuged for 2 minutes to fully separate the aqueous and organic phase. A sample taken from the octanol layer (0.1 mL) and the aqueous layer (1.0 mL) was saved for radioactivity measurement. An additional aliquot of the octanol layer (2.0 mL) was carefully transferred to a new test tube containing 0.5 mL of octanol and 2.5 mL of phosphate buffer solution (pH 7.4). The previous procedure (vortex mixing, centrifugation, sampling, and transfer to the next test tube) was repeated until six sets of aliquot samples had been prepared. The radioactivity of each sample was measured in a well counter (Perkin-Elmer, Waltham, Mass.). The log D of each set of samples was derived by the following equation: log D=log (decay-corrected radioactivity in octanol sample×10/decay-corrected radioactivity in phosphate buffer sample)."}, "histone deacetylases [1]": {"system": "histone deacetylases", "assay": "Rodent PET/CT imaging with [11C]CN133", "assay_type": "in vivo, rats (Sprague Dawley)", "procedure": "Male Sprague-Dawley rats were utilized in pairs, anesthetized with inhalational isoflurane (Forane) at 3% in a carrier of 2 L/min medical oxygen and maintained at 2% isoflurane for the duration of the scan. The rats were arranged head-to-head in a Triumph Trimodality PET/CT/SPECT scanner (Gamma Medica, Northridge, Calif., USA). Rats were injected standard references or vehicle via a lateral tail vein catheterization at the start of PET acquisition. Dynamic PET acquisition lasted for 60 minutes and was followed by computed tomography (CT) for anatomic coregistration. PET data were reconstructed using a 3D-MLEM method resulting in a full width at half-maximum resolution of 1 mm. Reconstructed images were exported from the scanner in DICOM format along with an anatomic CT for rodent studies. These files were imported to PMOD (PMOD Technologies, Ltd.) and manually coregistered using six degrees of freedom.\n(§2) Volumes of interest (VOIs) were drawn manually as spheres in brain regions guided by high resolution CT structural images and summed PET data, with a radius no less than 1 mm to minimize partial volume effects. Time-activity curves (TACs) were exported in terms of decay corrected activity per unit volume at specified time points with gradually increasing intervals. The TACs were expressed as percent injected dose per unit volume for analysis."}, "histone deacetylases [2]": {"system": "histone deacetylases", "assay": "Baboon PET/MR imaging with [11C]CN133", "assay_type": "in vivo, baboon (Papio anubis)", "procedure": "A female Papio Anubis baboon, deprived of food for 12 hours prior to the study, was administered intramuscular ketamine (10 mg/kg) and intubated. For maintenance of anesthesia throughout the study, the baboon was provided 1%-4% isoflurane (Forane) in a mixture of medical oxygen and nitrogen. The baboon was catheterized antecubitally for radiotracer injection and a radial arterial line was placed for metabolite analysis. MR-PET images were acquired in a BiographmMR scanner (Siemens, Munich, Germany), and PET compatible 8-channel coil arrays for non-human primate brain imaging with a PET resolution of 5 mm and field of view of 59.4 cm and 25.8 cm (transaxial and axial, respectively). Dynamic PET image acquisition was initiated followed by administration of the radiotracer in a homogenous solution of 10% ethanol and 90% isotonic saline. An […] sequence began after 30 minutes of the baseline scan for anatomic coregistration. […] Both scans were carried out in the same animal on the same day, separated by 2.5 hours. In both scans, 4-5 mCi of [^11C]CN133 was administered to the baboon. Dynamic data from the PET scans were recorded in list mode and corrected for attenuation. Baboon data were reconstructed using a 3D-OSEM method resulting in a full width at half-maximum resolution of 4 mm.\nas §2, with “MR” for “CT”, “4 mm. A common VOI mask was applied” for “1 mm”, “both baboon scans.” for “minimize partial volume effects.”\nArterial samples collected during imaging from the baboon were centrifuged to obtain plasma, which was then removed and placed in an automated gamma counter that was calibrated to the PET scanner. Metabolite analysis was conducted on a custom automated robot fitted with Phenomenex SPE Strata-X 500 mg solid phase extraction cartridges that were primed with ethanol (2 mL) and deionized water (20 mL). Protein precipitation was achieved by addition of plasma (300 μL) to acetonitrile (300 μL), which was centrifuged for 1 minute to obtain protein-free plasma (PFP). 300 μL of PFP/acetonitrile solution was diluted into deionized water (3 mL), loaded onto the C18 cartridge, and removed of polar metabolites with 100% water. Next, a series of extractions were performed using water and acetonitrile in quantities: 95:5, 90:10, 85:15, 80:20, 70:30, 60:40, 30:70 and 100% acetonitrile at a volume of 4 mL. A control experiment was performed before metabolite analysis to determine the retention of the parent compound by injection of a small amount of [^11C]CN133 onto a test series of extraction cartridges. Each sample was counted in a WIZARD2 Automatic Gamma Counter to determine the presence of radiolabeled metabolites.\nCN147 blocks ˜40% of [^11C]CN133 binding in NHP whole brain and in cerebellum. Plasma-normalized data were evaluated by volume of interest analysis (VOI) at the whole brain level and at level of the cerebellum. VOI data were then applied to distribution volume (VT) data analysis by two graphical methods using PMOD software, tabulated in Tables A and B below. Logan Plot and Ichese MAI methods were clarified from previous NHP imaging analyses to provide an accurate VT estimate (+/− standard error) from data beginning 35 min after injection of radiotracer (t*=35 min) until the end of the scan (t=80min)."}, "[3]": {"assay": "Off target binding assays", "conditions": "at 100 times its HDAC IC50"}, "cell cultures": {"system": "cell cultures", "assay": "Efficacy in cell cultures", "assay_type": "cell-based"}, "HDAC1 through HDAC9": {"target": "HDAC1 through HDAC9", "assay": "HDAC inhibition assay, isoform panel", "assay_type": "biochemical", "description": "as §1"}, "HDAC1": {"target": "HDAC1 (Homo sapiens (Human), UniProt Q13547)", "sequence (Q13547 whole entry)": "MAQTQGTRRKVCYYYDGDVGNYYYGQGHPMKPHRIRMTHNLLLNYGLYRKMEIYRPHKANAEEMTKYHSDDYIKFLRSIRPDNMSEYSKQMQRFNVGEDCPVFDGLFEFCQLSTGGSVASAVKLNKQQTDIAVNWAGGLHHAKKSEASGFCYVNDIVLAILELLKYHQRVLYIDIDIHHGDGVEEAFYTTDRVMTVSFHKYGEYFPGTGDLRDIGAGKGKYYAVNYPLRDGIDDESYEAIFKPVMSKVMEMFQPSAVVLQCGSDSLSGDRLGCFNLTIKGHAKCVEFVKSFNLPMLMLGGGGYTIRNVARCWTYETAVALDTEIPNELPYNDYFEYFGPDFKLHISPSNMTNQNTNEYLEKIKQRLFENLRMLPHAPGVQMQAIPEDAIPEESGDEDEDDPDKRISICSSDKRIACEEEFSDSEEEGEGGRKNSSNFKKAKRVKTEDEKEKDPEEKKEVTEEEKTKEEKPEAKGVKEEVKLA", "assay": "HDAC inhibition assay", "conditions": "read-out: IC50 HDAC1", "protocol": "(§3) All histone deacetylases were purchased from BPS Bioscience. […] All the other reagents were purchased from Sigma-Aldrich. Caliper EZ reader II system was used to collect all data. […] Purified HDACs were incubated with 2 μM carboxyfluorescein (FAM)-labeled acetylated or trifluoroacetylated peptide substrate (Broad Substrate A and B respectively) and test compound for 60 minutes at room temperature, in HDAC assay buffer that contained 50 mM HEPES (pH 7.4), 100 mM KCl, 0.01% BSA and 0.001% Tween-20. […] Substrate and product were separated electrophoretically and fluorescence intensity in the substrate and product peaks was determined and analyzed by Labchip EZ Reader. The reactions were performed in duplicate for each sample. IC50 values were automatically calculated by Origin 8 using 4 Parameter Logistic Model. The percent inhibition was plotted against the compound concentration, and the IC50 value was determined from the logistic dose-response curve fitting by Origin 8.0 software."}, "HDAC3": {"target": "HDAC3 (Homo sapiens (Human), UniProt O15379)", "sequence (O15379 whole entry)": "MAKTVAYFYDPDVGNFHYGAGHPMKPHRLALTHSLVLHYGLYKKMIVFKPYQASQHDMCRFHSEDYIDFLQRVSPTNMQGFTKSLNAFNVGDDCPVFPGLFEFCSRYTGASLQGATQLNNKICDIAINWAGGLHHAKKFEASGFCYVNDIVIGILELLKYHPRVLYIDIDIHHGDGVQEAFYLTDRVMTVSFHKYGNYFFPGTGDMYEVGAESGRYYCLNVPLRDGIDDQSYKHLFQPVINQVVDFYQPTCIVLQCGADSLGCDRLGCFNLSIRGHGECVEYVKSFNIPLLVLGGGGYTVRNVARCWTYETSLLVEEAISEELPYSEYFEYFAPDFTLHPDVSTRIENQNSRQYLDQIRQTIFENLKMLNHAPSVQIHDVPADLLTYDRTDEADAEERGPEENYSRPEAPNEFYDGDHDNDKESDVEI", "sequence (Q9Y618 395-489 partner)": "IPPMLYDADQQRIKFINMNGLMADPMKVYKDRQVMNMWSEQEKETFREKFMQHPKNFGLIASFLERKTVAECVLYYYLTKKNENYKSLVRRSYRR", "assay": "HDAC inhibition assay", "conditions": "read-out: IC50 HDAC3", "protocol": "as §3"}, "HDAC4": {"target": "HDAC4 (Homo sapiens (Human), UniProt P56524)", "sequence (P56524 whole entry)": "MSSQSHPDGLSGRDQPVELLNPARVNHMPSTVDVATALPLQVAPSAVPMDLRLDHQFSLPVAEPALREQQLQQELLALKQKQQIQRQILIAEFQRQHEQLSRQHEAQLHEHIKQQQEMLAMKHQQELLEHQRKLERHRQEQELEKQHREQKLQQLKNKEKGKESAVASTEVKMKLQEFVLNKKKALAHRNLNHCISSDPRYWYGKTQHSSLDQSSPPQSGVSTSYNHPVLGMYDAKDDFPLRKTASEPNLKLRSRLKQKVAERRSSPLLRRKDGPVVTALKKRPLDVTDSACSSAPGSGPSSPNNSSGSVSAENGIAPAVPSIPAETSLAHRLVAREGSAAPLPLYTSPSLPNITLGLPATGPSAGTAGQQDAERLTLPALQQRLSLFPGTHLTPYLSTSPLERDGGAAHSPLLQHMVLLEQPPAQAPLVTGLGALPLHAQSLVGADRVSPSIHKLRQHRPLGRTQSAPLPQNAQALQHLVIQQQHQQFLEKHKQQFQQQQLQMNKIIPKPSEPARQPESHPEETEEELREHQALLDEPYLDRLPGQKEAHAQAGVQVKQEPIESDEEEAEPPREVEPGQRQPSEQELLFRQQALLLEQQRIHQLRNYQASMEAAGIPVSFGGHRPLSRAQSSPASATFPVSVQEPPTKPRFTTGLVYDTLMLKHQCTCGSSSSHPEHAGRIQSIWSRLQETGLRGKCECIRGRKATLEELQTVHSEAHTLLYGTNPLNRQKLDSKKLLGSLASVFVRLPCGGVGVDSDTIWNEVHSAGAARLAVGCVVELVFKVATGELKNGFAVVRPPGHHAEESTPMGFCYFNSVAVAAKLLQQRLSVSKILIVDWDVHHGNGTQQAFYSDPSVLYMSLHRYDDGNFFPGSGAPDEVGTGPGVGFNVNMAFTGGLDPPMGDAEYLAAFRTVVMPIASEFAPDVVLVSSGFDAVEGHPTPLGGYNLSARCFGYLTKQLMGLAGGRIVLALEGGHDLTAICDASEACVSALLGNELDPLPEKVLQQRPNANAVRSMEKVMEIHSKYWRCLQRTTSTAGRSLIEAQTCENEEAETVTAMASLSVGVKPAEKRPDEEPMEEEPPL", "assay": "HDAC inhibition assay", "conditions": "read-out: IC50 HDAC4", "protocol": "as §3"}, "HDAC5": {"target": "HDAC5 (Homo sapiens (Human), UniProt Q9UQL6)", "assay": "HDAC inhibition assay", "conditions": "read-out: IC50 HDAC5", "protocol": "as §3"}, "HDAC7": {"target": "HDAC7 (Homo sapiens (Human), UniProt Q8WUI4)", "sequence (Q8WUI4 whole entry)": "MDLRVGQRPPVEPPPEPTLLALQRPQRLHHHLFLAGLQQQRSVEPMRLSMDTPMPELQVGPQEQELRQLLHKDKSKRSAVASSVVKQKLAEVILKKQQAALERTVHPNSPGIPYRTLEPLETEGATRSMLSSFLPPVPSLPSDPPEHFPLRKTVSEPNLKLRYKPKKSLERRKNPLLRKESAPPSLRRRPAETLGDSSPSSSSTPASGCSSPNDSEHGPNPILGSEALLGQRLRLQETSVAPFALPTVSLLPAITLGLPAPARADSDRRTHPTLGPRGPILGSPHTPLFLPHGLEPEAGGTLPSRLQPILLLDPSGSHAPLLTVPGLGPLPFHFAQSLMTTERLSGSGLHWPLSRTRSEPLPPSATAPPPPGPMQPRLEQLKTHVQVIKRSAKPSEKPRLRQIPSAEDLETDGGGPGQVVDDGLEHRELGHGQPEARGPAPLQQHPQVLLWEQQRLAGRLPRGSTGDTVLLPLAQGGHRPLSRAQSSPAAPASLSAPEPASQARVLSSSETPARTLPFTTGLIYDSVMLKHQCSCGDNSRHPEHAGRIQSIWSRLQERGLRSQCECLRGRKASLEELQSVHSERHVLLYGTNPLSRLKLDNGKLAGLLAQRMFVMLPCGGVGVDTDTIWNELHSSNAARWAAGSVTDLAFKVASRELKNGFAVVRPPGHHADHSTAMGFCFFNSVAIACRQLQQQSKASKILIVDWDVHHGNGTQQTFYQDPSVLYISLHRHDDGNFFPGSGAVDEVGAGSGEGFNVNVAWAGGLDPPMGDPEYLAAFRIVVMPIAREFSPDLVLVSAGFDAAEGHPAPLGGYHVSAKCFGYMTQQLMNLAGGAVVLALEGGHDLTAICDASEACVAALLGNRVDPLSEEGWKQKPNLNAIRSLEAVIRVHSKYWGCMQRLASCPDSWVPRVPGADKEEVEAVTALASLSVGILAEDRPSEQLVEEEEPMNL", "assay": "HDAC inhibition assay", "conditions": "read-out: IC50 HDAC7", "protocol": "as §3"}, "HDAC9": {"target": "HDAC9 (Homo sapiens (Human), UniProt Q9UKV0)", "sequence (Q9UKV0 whole entry)": "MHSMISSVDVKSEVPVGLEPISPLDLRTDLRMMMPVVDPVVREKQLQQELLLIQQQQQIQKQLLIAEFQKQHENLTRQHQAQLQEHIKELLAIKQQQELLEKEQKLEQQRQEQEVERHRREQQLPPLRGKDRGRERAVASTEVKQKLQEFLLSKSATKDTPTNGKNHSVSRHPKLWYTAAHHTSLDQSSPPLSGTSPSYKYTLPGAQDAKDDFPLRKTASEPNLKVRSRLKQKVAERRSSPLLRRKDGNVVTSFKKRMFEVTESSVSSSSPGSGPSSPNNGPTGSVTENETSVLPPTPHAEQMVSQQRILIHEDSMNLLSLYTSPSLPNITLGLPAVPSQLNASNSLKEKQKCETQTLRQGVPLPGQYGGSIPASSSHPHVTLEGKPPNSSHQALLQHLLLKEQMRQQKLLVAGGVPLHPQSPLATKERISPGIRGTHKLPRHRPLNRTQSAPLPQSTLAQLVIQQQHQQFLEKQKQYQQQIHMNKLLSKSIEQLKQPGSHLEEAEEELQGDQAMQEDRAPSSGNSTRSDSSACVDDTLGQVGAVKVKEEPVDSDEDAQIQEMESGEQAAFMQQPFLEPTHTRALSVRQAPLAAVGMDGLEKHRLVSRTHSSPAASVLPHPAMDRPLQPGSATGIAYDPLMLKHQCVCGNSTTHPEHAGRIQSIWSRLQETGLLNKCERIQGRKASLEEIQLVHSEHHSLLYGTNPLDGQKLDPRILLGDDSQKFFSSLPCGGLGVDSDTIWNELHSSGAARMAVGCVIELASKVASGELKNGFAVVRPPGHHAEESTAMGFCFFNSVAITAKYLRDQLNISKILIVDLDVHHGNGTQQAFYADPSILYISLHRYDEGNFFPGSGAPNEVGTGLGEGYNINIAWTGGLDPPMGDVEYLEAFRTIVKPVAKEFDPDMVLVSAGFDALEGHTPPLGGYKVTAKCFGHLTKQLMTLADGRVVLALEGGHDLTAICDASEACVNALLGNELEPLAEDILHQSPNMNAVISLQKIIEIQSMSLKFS", "assay": "HDAC inhibition assay", "conditions": "read-out: IC50 HDAC9", "protocol": "as §3"}}, "note": "“Also recorded” adds a separate entry of the source.", "data": [{"smiles": "CN(Cc1ccc(/C=C/C(=O)NO)cc1)CC12CC3CC(CC(C3)C1)C2", "note": "[CN133, (E)-3-(4-((((3r,5r,7r)-adamantan-1-ylmethyl)(methyl)amino)methyl)phenyl)-N-hydroxyacrylamide]", "values": [{"measurement": "IC50", "setting": "HDAC6", "result": 4.1, "unit": "nM"}, {"measurement": "IC50", "setting": "HDAC8", "result": "> 15", "unit": "µM"}, {"measurement": "partition coefficient (Log D)", "setting": "Log D determination", "result": 2.03}, {"measurement": "P-glycoprotein interaction (CsA pretreatment study)", "setting": "histone deacetylases [1]; 30-minute pretreatment of CsA 25 mg/kg", "result": "not a Pgp inhibitor"}, {"measurement": "reversibility of binding", "setting": "histone deacetylases [1]; CN133 1.0 mg/kg i.v. 20 minutes into baseline scan with [11C]CN133", "result": "reversible inhibitor; also recorded: rapid washout of radioactivity from brain regions"}, {"measurement": "[11C]CN133 uptake in peripheral organs/regions of rats after treatment", "setting": "histone deacetylases [1]; peripheral organs (heart wall, kidney cortex, spleen)", "result": "decreased"}, {"measurement": "changes in vital signs", "setting": "histone deacetylases [2]; baboon, tracer dose or blocking dose", "result": "did not notice any significant changes"}, {"measurement": "blocking of [11C]CN133 uptake in baboon peripheral organs (time-activity curves)", "setting": "histone deacetylases [2]; heart, spleen, kidney, pancreas, CN133 0.5 mg/kg 10-minute pre-treatment, SAHA infusion 5 mg/kg", "result": "significant blocking"}, {"measurement": "blocking of [11C]CN133 uptake in baboon brain", "setting": "histone deacetylases [2]; intravenous, CN133 0.01-1.0 mg/kg, CN147 0.5 mg/kg", "result": "reduced the regional radioactivity uptake"}, {"measurement": "off target binding", "setting": "[3]", "result": "minimal (if any) off target binding"}, {"measurement": "efficacy in cell cultures", "setting": "cell cultures", "result": "sub-nanomolar"}, {"measurement": "IC50 / binding towards HDAC isoforms (in words)", "setting": "HDAC1 through HDAC9; HDAC1, HDAC2, HDAC3 and HDAC6", "result": "low nanomolar; also recorded: sub-nanomolar"}, {"measurement": "selectivity over each of the other HDAC isoforms", "setting": "HDAC1 through HDAC9; HDAC1-3 and HDAC6 versus other isoforms", "result": "greater than 100 fold"}, {"measurement": "IC50", "setting": "HDAC1", "result": 0.3, "unit": "nM"}, {"measurement": "IC50", "setting": "HDAC3", "result": 0.6, "unit": "nM"}, {"measurement": "IC50", "setting": "HDAC4", "result": 1970, "unit": "nM"}, {"measurement": "IC50", "setting": "HDAC5", "result": 352, "unit": "nM"}, {"measurement": "IC50", "setting": "HDAC7", "result": "> 20", "unit": "µM"}, {"measurement": "IC50", "setting": "HDAC9", "result": "> 15", "unit": "µM"}]}]}
